According to publication PMC10065799, “High-throughput profiling of sequence recognition by tyrosine kinases and SH2 domains using bacterial peptide display” (eLife, 2023):
Like-named read-outs stand apart in the source and are kept apart here.

Assays:
Assay in all cases: pTyr-Var library bacterial peptide display kinase screen (enrichment scores)
[1] = target: c-Src kinase domain (Homo sapiens, UniProt P12931); format: biochemical
[2] = test system: Fer kinase domain; format: biochemical, mouse; conditions: sheet "Fer"
[3] = target: T1, c-Abl kinase domain (Mus musculus, UniProt P00520); format: biochemical
T1 sequence (P00520 242-493 limits assumed): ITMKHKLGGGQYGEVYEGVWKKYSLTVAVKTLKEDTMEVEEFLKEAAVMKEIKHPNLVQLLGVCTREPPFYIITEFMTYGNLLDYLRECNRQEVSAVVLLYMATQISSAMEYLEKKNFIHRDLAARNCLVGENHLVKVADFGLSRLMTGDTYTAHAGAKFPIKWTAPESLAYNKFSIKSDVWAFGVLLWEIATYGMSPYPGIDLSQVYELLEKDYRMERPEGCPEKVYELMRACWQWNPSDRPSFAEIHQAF

[4] = test system: EPHB2 kinase domain; format: biochemical, human; conditions: sheet EPHB2
[5] = test system: EPHB1 kinase domain; format: biochemical, human; conditions: sheet EPHB1; effect of the variant peptide relative to its reference peptide in the pTyr-Var library screen (enrichment scores)
[6] = sheet "Src", effect of the variant peptide relative to its reference peptide in the pTyr-Var library screen
[7] = value of the variant peptide against its reference peptide in the pTyr-Var library screen with Fer
[8] = sheet "Src", variant peptide versus its reference peptide in the pTyr-Var library screen
[9] = sheet "Abl", effect of variant peptide relative to its reference peptide in pTyr-Var library screen (enrichment)
[10] = variant peptide relative to its reference peptide, pTyr-Var library screen enrichment
[11] = effect of variant peptide relative to its reference peptide in the pTyr-Var library screen (enrichment scores)
[12] = fig5-data2, sheet "Abl", Screen for the variant/reference peptide pair, pTyr-Var library
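Note: log2 fold change in enrichment of variant over reference.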

IFGVSYGEFRF [CFTR_Y512_D513G_YF]
Screen [1, 6]: 1.211
Screen [2, 7]: -1.628

AEFGLYGAMVW [VSX2_Y222_R227W_YF]
Screen [1, 8]: -0.4242
Screen [3, 9]: 3.628
Screen [2, 10]: 1.328

LLRFLYFFVCS [SLC34A2_Y109_G106R]
Screen [4, 11]: -1.518
Screen [1, 8]: -1.793

SEKVVYQRFTE [NCF1_Y41_R42Q]
Screen [1, 8]: 2.147

KQMEQYMSFHK [HCN1_Y417_V414M]
Screen [1, 6]: 0.2609

VCDALYPPGPP [TTN_Y25928_A25923V]
Screen [3, 9]: -1.728

RQIQSYTCEID [DES_Y331_H326R]
Screen [3, 12]: 0.08274

VPLATYMQIFK [RPL21_Y30_R32Q_YF]
Screen [5]: 2.259
Screen [1, 8]: 1.658

LRSKQYLRNPP [SHC1_Y315_F312S]
Screen [4, 11]: -1.743
Screen [3, 9]: -0.3171

RLGVTYEQALA [MAP2_Y996_G991R]
Screen [4, 11]: 1.544

SVVVHYEPPEV [TP53_Y220_P219H]
Screen [2, 10]: 1.725

HFVDEYDRTIE [KRAS_Y32_P34R]
Screen [3, 12]: 1.156

INMKEYCKKDF [NTN1_Y490_K489E_YF]
Screen [3, 12]: 0.9886

VLAAQYTTVGR [SGSH_Y240_D235V]
Screen [3, 9]: 1.42

SSEILYHIIKG [CDH17_Y489_K486E]
Screen [1, 6]: 3.183

EAEALYQTTFQ [KRT73_Y325_K328T]
Screen [4, 11]: 1.238
Screen [1, 6]: 1.585
Screen [2, 7]: 3.654

GFPVHYTGVSN [DNMT3B_Y815_D817G]
Screen [3, 12]: 0.7985

VHLFAYDWISI [BEST1_Y227_G222V_YF]
Screen [2, 7]: -0.5402

VPVPGYTKVPE [SPRR3_Y146_L149V]
Screen [3, 9]: 2.059

AERKLYRNVML [ZNF569_Y33_Q29E]
Screen [3, 9]: 1.464

TEIGQYGNGLK [MORC2_Y100_Q96E]
Screen [3, 12]: -0.8794

AVLSLYASGRN [ACTA1_Y145_T150N]
Screen [3, 12]: -2.061

LDTSQYFRLFN [CPT2_Y217_M214T]
Screen [3, 12]: -0.04852

HQKKPYCHTHN [NRAP_Y53_A56T]
Screen [5]: 0.5433
Screen [2, 7]: 0.08502

GHMFAYDWISI [BEST1_Y227_L224M_YF]
Screen [2, 7]: -0.1339

LKVQVYILGRE [ASS1_Y359_G356V]
Screen [2, 7]: 1.05

NTEGGYCCICA [CRELD1_Y328_R329C]
Screen [3, 12]: -0.2438

LIGTPYWMAPE [PAK5_Y608_V604I]
Screen [1, 8]: -0.06712

VDTPMYATMQR [TPO_Y55_A53P]
Screen [1, 8]: -0.2543

QADIIYVNTQL [MERTK_Y872_V870I]
Screen [5]: -0.9888
Screen [2, 7]: -0.9597

TLERHYKELQA [SPTBN2_Y834_E835K]
Screen [2, 10]: -2.093

FSQETYFRVSN [ABCD1_Y180_Q178E_YF]
Screen [1]: 0.7032

PSPMPYAFCQM [FOXL2_Y215_S217F]
Screen [1, 6]: 1.188
Screen [2, 7]: 3.3

HICTAYKLVLA [DHCR24_Y190_E191K]
Screen [4, 11]: 0.4857
Screen [1, 6]: -1.13
Screen [2, 7]: -2.51

SWSTSYSGFRC [NKAPL_Y91_Y96C_YF]
Screen [1, 8]: -0.8065
Screen [2, 7]: -1.554

PADCRYFTFPQ [GAMT_Y222_A224T_YF]
Screen [1, 6]: 0.8198

REVPVYISEDS [SYNM_Y460_G462S]
Screen [1, 8]: 1.666

PNLILYGDFRQ [MYH7_Y715_R712L]
Screen [1, 8]: -0.8884

EFFDGYWEFSV [ITGA2B_Y265_G267E_YF]
Screen [1, 6]: 0.01389

ELTTCYRKKCS [CCBE1_Y70_C75S]
Screen [3, 12]: -0.6974

EAIMTYVSSFF [ACTN4_Y260_K255E_YF]
Screen [3, 12]: -1.004

TWEKPYECVQC [ZNF24_Y335_G331W]
Screen [3, 9]: -4.858
Screen [2, 10]: 1.366

KTSGNYLPVTG [WDR19_Y28_A30P]
Screen [3, 9]: -2.37

PQEVMYAQLDH [KIR3DL2_Y398_T397M]
Screen [1, 6]: -0.9154
Screen [2, 7]: 0.4165

HFMELYDLNRD [BBS2_Y648_R643H_YF]
Screen [1, 6]: 1.185

DAVCFYRMENA [NPHS2_Y195_I192V_YF]
Screen [1, 8]: 0.05721

GGPAGYLWRAS [PKLR_Y38_R40W]
Screen [3, 12]: 0.4229

TVSQPYSFIEF [SEC22B_Y110_R108Q]
Screen [1, 8]: 0.852
Screen [2, 10]: 0.7571

HFGNNYTDVLQ [MACC1_Y803_R804T_YF]
Screen [5]: 1.456

FTGDIYSSSNL [LZTR1_Y141_N143S_YF]
Screen [1, 6]: -0.3427
Screen [2, 7]: -0.3328

FMGVEYSSCDT [EPHA3_Y937_T933M]
Screen [3, 12]: -2.367

TLGPFYPSLLF [CRYAA_Y18_R21L]
Screen [3, 12]: 1.059

PFSSPYENSLI [EPOR_Y489_N487S_YF]
Screen [2, 7]: 0.2958

LITTPYIGFLG [KCNQ1_Y267_L266P]
Screen [1, 6]: -1.29

NTGDDYDLFGG [PTPN11_Y63_Y62D_YF]
Screen [1, 8]: -2.136
Screen [2, 10]: -1.594

RTTIHYNFMCN [TP53_Y234_C229R_YF]
Screen [3, 9]: 1.254

ETKTPYTVILI [SBDS_Y128_R126T]
Screen [3, 9]: 0.2291

PINLFYLMDLS [ITGB2_Y131_D128N_YF]
Screen [1, 6]: -0.4123

CHSDDYVHISI [TSC1_Y406_L411I]
Screen [3, 9]: -1.634

GLQDEYDFKCK [STAT1_Y170_D165G]
Screen [3, 9]: -1.133

RSSGGYEPRGC [FUS_Y239_R244C]
Screen [3, 12]: -2.404

ENELTYFCFKK [CD59_Y86_C89Y_YF]
Screen [1, 6]: 1.06

AAVPAYDKIQV [STXBP2_Y401_R405Q]
Screen [2, 10]: 1.488

LFLASYCIGGG [UBD_Y161_C160S]
Screen [3, 9]: 1.114

KKDGPYDVVVL [PARK7_Y67_E64D]
Screen [2, 7]: -0.9233

GHPFAYDWISI [BEST1_Y227_L224P_YF]
Screen [2, 7]: -0.03554

HLTLVYGGIFL [FBP1_Y259_R255L]
Screen [1, 6]: -0.5188

PVDGEYFTLQI [TP53_Y327_L323V]
Screen [1, 8]: -0.1089

QHVPDYRQNGF [PCDHGA6_Y891_V895G_YF]
Screen [3, 12]: 0.1057

LRSELYSLIAR [PHIP_Y16_F17S]
Screen [5]: 1.727
Screen [1, 8]: 0.6047
Screen [2, 7]: 2.641

SVESPYGSVTF [NDRG2_Y47_T45S]
Screen [1, 8]: 0.3806
Screen [2, 7]: 0.8943

LDPDSYNVFEN [FOXC1_Y159_M161V]
Screen [3, 12]: -0.1184

TNEFEYDELIV [TGM1_Y136_D132N_YF]
Screen ([4]; effect of the variant relative to its reference peptide in the pTyr-Var library screen): -2.123

PMWHPYKADVT [TP53TG5_Y255_V257A]
Screen [1, 8]: -1.569

MSDVPYVMNRG [ACAT1_Y161_N158D]
Screen [3, 12]: 0.04557

CHKRTYKVTGL [TTN_Y21853_C21851R]
Screen [3, 9]: -1.801

VWHRRYKHTHE [CTCF_Y343_R339W]
Screen [3, 12]: -0.9062

KGEDFYCVTCP [FHL1_Y149_H154P]
Screen [1, 6]: 2.585
Screen [3, 12]: -1.428
Screen [2, 7]: 2.355

EGDGVYTLNDE [HP_Y125_N129D]
Screen [1, 6]: -0.1677

HILFRYPKEFQ [IDS_Y234_P231L]
Screen [1, 6]: 0.8356

RVFRDYVLKSA [HTATIP2_Y111_D108Y_YF]
Screen [3, 12]: -1.327

TEDELYQLFLQ [RASGRP2_Y378_S381F]
Screen [1, 8]: 1.657
Screen [2, 10]: 1.535

SVGGCYEQLFV [MC4R_Y41_D37V]
Screen [1, 6]: -0.5254
Screen [2, 7]: -0.4465

EVTRLYGSVCD [TC2N_Y154_K151T]
Screen [1, 8]: 2.081

QELRRYLESGV [MICA_Y194_K196E]
Screen [4, 11]: 0.3004

AKLDIYKRKVE [VWA3B_Y918_N916D]
Screen [3, 9]: 4.352

RSSNTYTLMDV [ALCAM_Y298_T301M]
Screen [1, 6]: -0.02147

CPASVYTKRCS [CPT2_Y508_R503C]
Screen [3, 12]: -1.448

DEWFLYKMRDI [CPS1_Y879_K875E]
Screen [3, 12]: -2.954

SNNFIYTTLGV [FAM83B_Y639_K640T_YF]
Screen [5]: 2.305
Screen [1, 6]: 3.577
Screen [2, 7]: 2.656

SRDDFYETIAM [NPY1R_Y347_D346Y_YF]
Screen [2, 7]: 2.699

AELKLYSGAQT [ZAP70_Y178_R175L]
Screen [3, 9]: -2.646

QADVVYVNTQL [MERTK_Y872_I871V]
Screen [5]: -1.929
Screen [2, 7]: -1.343

LTELGYSFVTT [ACTA1_Y200_R198L]
Screen [2, 7]: 0.9203

LICRRYLVMQR [IL3RA_Y328_V323L]
Screen [4, 11]: 1.326
Screen [3, 12]: 0.743

VVRSLYEDLED [VHL_Y185_I180V]
Screen [3, 9]: -2.047

NWGSPYKSDGC [ZNF347_Y261_N264D]
Screen [3, 9]: 3.66

WNDPDYMDSRR [GAA_Y407_L405P]
Screen [3, 12]: -1.862

HLVLNYGVCIC [JAK2_Y613_V617I]
Screen [5]: -0.07338

ISRDVYSTDFF [NTRK2_Y702_M697I_YF]
Screen [1, 8]: 0.05631

ANARMYGVLPW [PLP1_Y207_D203N]
Screen [4, 11]: -1.895
Screen [1, 8]: -0.7799

NFPGGYSGSVK [MCPH1_Y606_L602F]
Screen [3, 12]: 0.06785

RSACTYLAPHL [PLK3_Y615_S618P]
Screen [5]: 2.327
Screen [1, 8]: 2.785

GSERRYTREGG [PTPRN2_Y139_S140T]
Screen [3, 12]: -0.6086

IGEGTYGVLFK [CDK2_Y15_V18L_YF]
Screen [4, 11]: -0.7589
Screen [1, 6]: 0.1027
